This is an account of results in PubChem BioAssay (NCI).

The TGI is the concentration at which net growth stops. High values mean lower sensitivity of the cells, low ones greater sensitivity of the cells.

The structures appear in SMILES notation.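 Following 48 hours of exposure in 96-well plates, responses at five concentrations were used to interpolate endpoints linearly. TGI: total growth inhibition.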

Test in all cases: DTP human tumour cell line panel, 48 h
The test system of experiment [1] is MOLT-4 leukemia.
Experiment [2] has as its system RPMI-8226 leukemia.
For experiment [3], the system named is SR leukemia.
Experiment [4] has as its system IGROV1 ovarian.
Experiment [5] deals with HCT-116 colon.
In experiment [6] the test system is UACC-257 melanoma.
Experiment [7] concerns NCI-H226 lung.
Experiment [8] concerns HL-60(TB) leukemia.
Experiment [9] concerns SNB-19 CNS.
Experiment [10] relates to LOX IMVI melanoma.
Experiment [11] concerns SK-MEL-28 melanoma.
In experiment [12] the test system is K-562 leukemia.
Experiment [13] has as its system EKVX NSCLC.
In experiment [14] the test system is HOP-62 NSCLC.
In experiment [15] the test system is OVCAR-5 ovarian.
In experiment [16] the test system is COLO 205 colon.
Experiment [17] relates to A498 renal.
For experiment [18], the system named is CAKI-1 renal.
Experiment [19] deals with PC-3 prostate.

As for `Cc1ccc([N+]2=NC(c3ccc([N+](=O)[O-])cc3)=NN(c3ccccc3)C2)cc1`, the TGI in [1], in experiment [2], in experiment [3], in experiment [4], in [5] and in experiment [6] was more than 100 µM throughout. For the same molecule, the TGI in experiment [7], in experiment [8], in experiment [9], in experiment [10], in experiment [11] and in experiment [12] was more than 100 µM throughout. The TGI in [13], in experiment [14], in experiment [15], in experiment [16] and in [17] was more than 100 µM each time.

`CCOc1ccc(NC(=O)/C(Cc2nc3ccccc3[nH]c2=O)=N\O)cc1`: the TGI in experiment [1], in experiment [2], in experiment [18], in experiment [4], in experiment [5] and in [6] was more than 100 µM throughout. Moreover, the TGI in [9], in experiment [10], in experiment [11], in experiment [12], in [13] and in experiment [14] was more than 100 µM throughout. Further, the TGI in [15], in [16] and in [17] was more than 100 µM each time.

`CC(=O)OC1COC(n2c(O)c(N=Nc3ccc([N+](=O)[O-])cc3)c3cc(Br)c([N+](=O)[O-])cc32)C(OC(C)=O)C1OC(C)=O` (configuration not stated): the TGI in experiment [1] was more than 100 µM; in experiment [2] it was more than 100 µM; in experiment [3], more than 100 µM; in experiment [18], more than 100 µM; in [4] it was 70.3 µM; in experiment [5], more than 100 µM. The TGI in [6], in [7], in experiment [8], in experiment [9], in experiment [10] and in experiment [11] was more than 100 µM in each case. In addition, the TGI in [12], in experiment [13], in experiment [14], in experiment [15] and in experiment [16] was more than 100 µM in each case.

In the case of `O=C1C[C@@H]2[C@@H](C=CC23CC3)N1O`, the TGI in experiment [1], in experiment [2], in experiment [18], in experiment [4], in [5] and in [6] was more than 100 µM each time. In addition, the TGI in experiment [7], in experiment [8], in experiment [9], in [10], in [11] and in experiment [12] was more than 100 µM each time. Besides, the TGI in [13], in experiment [14], in [15], in experiment [16] and in experiment [17] was more than 100 µM each time.

For `Cc1nc2ccc(F)cc2c2c1CCN2c1ccccc1`, the TGI in experiment [19] was 86.2 µM; in [1] it was 52.4 µM; in [2], 37.1 µM; in experiment [3], 37 µM; in experiment [4] it was more than 100 µM; in experiment [5], 23.2 µM. For the same molecule, the TGI in [6] is 40.1 µM; in [7], 41.8 µM; in experiment [8], 24.6 µM; in experiment [9], more than 100 µM; in experiment [10] it was 27.6 µM; in experiment [11], 34.3 µM. Further, the TGI in [12] is 33.4 µM; in experiment [13], 94.9 µM; in experiment [14], more than 100 µM; in [16], 27.1 µM; in experiment [17], 77.2 µM.

For the molecule `COc1cc(C(=O)O)cc2c1[nH]c1ccccc12`, the TGI in experiment [1], in experiment [2], in [3], in experiment [4], in experiment [5] and in experiment [7] was more than 25 µM throughout. In addition, the TGI in experiment [8], in [9], in experiment [10], in [11], in [12] and in [14] was more than 25 µM throughout. Also, the TGI in [15] and in experiment [16] was more than 25 µM in each case.

Consider `CN(C)CCNC(=O)c1ccccc1Nc1c(Cl)cccc1Cl`, for which the TGI in experiment [1] worked out at 29.2 µM; in experiment [2], 29.1 µM; in [3] it was 30.9 µM; in experiment [4], 36.3 µM; in experiment [5] it was 20.6 µM; in experiment [6] it was 18.5 µM. Moreover, the TGI in [7] stood at 29.4 µM; in [8], 27 µM; in experiment [9], 29.9 µM; in experiment [10] it was 25.8 µM; in [11], 28.2 µM; in experiment [12], 36.2 µM. The TGI worked out at 21.6 µM in experiment [13], 27.2 µM in experiment [14], 22.2 µM in [15] and 25.8 µM in [16].

`ClCCN(CC#CCCCC#CCN(CCCl)CCCl)CCCl`: the TGI stood at 6.59 µM in experiment [1]; 13.4 µM in experiment [2]; 7.66 µM in experiment [3]; 32.7 µM in experiment [18]; 35.1 µM in experiment [4]; 25.3 µM in [5]. Besides, the TGI came to 29.2 µM in experiment [6]; 37.2 µM in experiment [7]; 7.18 µM in [8]; 27.6 µM in experiment [9]; 20.9 µM in experiment [10]; 38.6 µM in [11]. Moreover, the TGI in experiment [12] amounted to 37.7 µM; in [13], 44.8 µM; in experiment [14], 29.3 µM; in experiment [15] it was 26 µM; in experiment [16], 30.3 µM; in [17], 26.4 µM.

Take `CC1(OCc2ccccc2)C(=O)N2C1N(C(=O)OCc1ccccc1)CC2(C)C` (configuration not stated): the TGI is 77.4 µM in experiment [1]; 95.7 µM in experiment [2]; 95 µM in experiment [3]; more than 100 µM in experiment [4]; more than 100 µM in experiment [5]; more than 100 µM in [6]. The TGI is more than 100 µM in experiment [7]; 90.5 µM in [8]; more than 100 µM in experiment [9]; more than 100 µM in experiment [10]; more than 100 µM in experiment [11]; more than 100 µM in experiment [12]. Moreover, the TGI in experiment [13], in [14], in [16] and in experiment [17] was more than 100 µM each time.
